Experiments:
[1] = tested on: SK-MEL-30 melanoma cell line harboring NRAS^Q61K mutation; test: SK-MEL-30 xenograft, belvarafenib and binimetinib (Example 9); type: in vivo, mice; details: 21 days
[2] = clinical pharmacokinetics of cobimetinib; details: for half-life: oral administration
[3] = Phase 1a/b study NCT03284502: pharmacokinetic analysis; type: in vivo, human; details: steady-state, dose normalized
[4] = tested on: SK-MEL-30 human melanoma cell line harboring NRAS^Q61K mutation; test: SK-MEL-30 xenograft, belvarafenib and cobimetinib (Example 7); details: 10 mg/kg QD orally, 14 days
Protocol: (§1) Tumor volume in mm^3 and body weight change were measured at days 1, 4, 9 and 15.
(§2) Maximum inhibition rate (max inhib (%)) was determined by (1−(mean relative tumor weight in treated group/mean relative tumor weight control group))*100.

[5] = plasma protein binding of cobimetinib; type: in vitro ADME; details: concentration-independent
[6] = tested on: SK-MEL-30 human melanoma cell line harboring NRAS^Q61K mutation; details: mouse, in vivo, po
Protocol: as §1, §2

[7] = tested on: Calu-6 NSCLC cell line harboring KRAS^Q61K mutation; test: Calu-6 xenograft, belvarafenib and selumetinib (Example 10); type: in vivo, mice; details: 17 days
[8] = atezolizumab Study PCD4989g; type: in vivo, human; details: single agent
Protocol: The pharmacokinetics of atezolizumab administered as a single agent have been characterized based on clinical data from study PCD4989g and are consistent with a currently ongoing Phase III Study WO29522 in first line treatment of TNBC. Atezolizumab anti-tumor activity has been observed across doses from 1 to 20 mg/kg. […] Atezolizumab dosing schedules of q3w and q2w have been tested. A fixed dose of atezolizumab 800 mg every two weeks (q2w) (equivalent to a body weight-based dose of 10 mg/kg q2w) results in equivalent exposure to the Phase III dose of 1200 mg administered every three weeks (q3w). The q3w schedule is being used in multiple Phase III studies of atezolizumab monotherapy across multiple tumor types and the q2w predominantly used in combination with chemotherapy regimens.

melanoma = details: patients who have previously undergone anti-PD-1 treatment; cited from earlier work
advanced melanoma = details: cited from earlier work

Cn1cnc2c(F)c(Nc3ccc(Br)cc3F)c(C(=O)NOCCO)cc21 [Binimetinib]
Day for max inhib ([1]; 10 mg/kg QD orally): Day 21
Max inhib. Rate (%) ([1]; 10 mg/kg QD orally): 13.6%
Max weight loss (%) ([1]; 10 mg/kg QD orally): 0.8%
Day for max inhib ([1]; 30 mg/kg QD orally): Day 21
Max inhib. Rate (%) ([1]; 30 mg/kg QD orally): 27.1%
tolerability ([1]; single agent, 10 and 30 mg/kg q.d.): well tolerated without marked body weight loss

O=C(c1ccc(F)c(F)c1Nc1ccc(I)cc1F)N1CC(O)([C@@H]2CCCCN2)C1 [Cobimetinib, (S)-[3,4-Difluoro-2-(2-fluoro-4-iodophenylamino)phenyl][3-hydroxy-3-(piperidin-2-yl)azetidin-1-yl]methanone]
pharmacokinetics in the fed state compared with the fasted state ([2]; healthy subjects): not altered
bioavailability ([2]; human, in vivo, oral): 45.9%
Tmax ([2]; human, in vivo, po): 1 to 3 h
half-life ([2]; human, in vivo, po, mean terminal half-life (t½)): 48.8 h
half-life ([2]; human, in vivo, po, terminal half-life (t½), range): 23.1 to 80 h
effect of the proton pump inhibitor rabeprazole on cobimetinib pharmacokinetics ([2]; presence or absence of a high-fat meal): minimal effect
drug-drug interaction with belvarafenib impacting cobimetinib exposure [3]: no apparent drug-drug interaction
Day for max inhib [4]: Day 15
Max inhib. Rate (%) [4]: 54.3%
binding to plasma proteins [5]: 95%
tolerability [6]: well tolerated without body weight loss

Cn1cnc2c(F)c(Nc3ccc(Br)cc3Cl)c(C(=O)NOCCO)cc21 [Selumetinib, reference compound]
Day for max inhib ([7]; 5 mg/kg BID orally): Day 18
Max inhib. Rate (%) ([7]; 5 mg/kg BID orally): 59.0%
Max weight loss (%) ([7]; 5 mg/kg BID orally): 1.5%
tolerability ([7]; single agent): well tolerated with or without minimal body weight loss

Atezolizumab: humanized IgG1 monoclonal antibody that targets PD-L1
Kaplan-Meier estimated overall 24-week progression-free survival (PFS) rate [8]: 33%

ipilimumab: anti-CTLA4 immunotherapy agent
response rate (melanoma): approximately 15%

nivolumab: anti-PD-1 immunotherapy agent, monotherapy arm of a Phase III trial
median OS (advanced melanoma; 5 years minimum follow-up): 36.9 months
PFS (advanced melanoma; Phase III trial of 1296 patients): 6.9 months
